From patent US20260184726A1, “HETEROCYCLIC COMPOUNDS AS KINASE INHIBITORS, COMPOSITIONS, AND METHODS OF USE THEREOF” (JS INNOMED HOLDINGS LTD., priority 2022, published 2026)

Tests used:
BAF3 cells = experiment: BAF3 Cell Proliferation Assay (CellTiter-Glo, without RET driven, IL-3); assay type: cell-based; details: Mus musculus; growth inhibition in BAF3 cells, 72 hours, with IL-3; read-out: BAF3 Cellular Activity
Method: Compounds disclosed herein were tested for the inhibition BAF3 cells proliferation without RET driven by CellTiter-Glo assay. In this assay, a complete media was prepared by adding 10% fetal bovine serum and 1 ng/ml IL-3 to RPMI-1640 medium (Life technology) for BAF3 cells. BAF3 cells were added to each of 88 wells of a 96 well plate at a seeding density of 2,000 cells/well/95 μL. The cells were allowed to attach to the plate by incubating at 37° C. for 24 hours. The compound was dissolved in DMSO (SIGMA). A solution of test compound was prepared in complete media by serial dilution to obtain the following concentrations: 200 μM, 66.7 μM, 22.2 μM, 7.4 μM, 2.5 μM, 0.82 μM, 0.27 μM, 0.091 μM and […]. The test compound solution (5 μL) was added to each of 80 cell-containing wells. The final concentrations of the compound were following: 10 μM, 3.33 μM, 1.11 μM, 0.37 μM, 0.12 μM, 0.041 μM, 0.014 μM, 0.0046 μM and 0.0015 μM. The final concentration of DMSO is 0.1%. To the 8 remaining cell-containing wells, only complete media (containing 0.1% DMSO) was added to form a control group in order to measure maximal proliferation. To the remaining 8 empty wells, complete media was added to for a vehicle control group in order to measure background. The plates were incubated at 37° C. for 72 hours. 50 μl of CellTiter-Glo® Reagent was added to each well. The contents were mixed for 2 minutes on an orbital shaker to induce cell lysis, and then were incubated at room temperature for 10 minutes to stabilize luminescent signal. Luminescence was recorded on Paradigm. Cell viability (CV %) was calculated relative to vehicle (DMSO) treated control wells. The IC50 was calculated using GraphPad Prism.

human Aurora B kinase = target: T1, human Aurora B kinase (Homo sapiens, UniProt Q96GD4); experiment: Aurora B Kinase Assay (mobility shift assay, ATP at Km); assay type: biochemical; details: 15 μM ATP (Km), read-out: AurB Enzymatic Activity
T1 construct: purchased Carna 05-102
T1 sequence (Q96GD4 whole entry): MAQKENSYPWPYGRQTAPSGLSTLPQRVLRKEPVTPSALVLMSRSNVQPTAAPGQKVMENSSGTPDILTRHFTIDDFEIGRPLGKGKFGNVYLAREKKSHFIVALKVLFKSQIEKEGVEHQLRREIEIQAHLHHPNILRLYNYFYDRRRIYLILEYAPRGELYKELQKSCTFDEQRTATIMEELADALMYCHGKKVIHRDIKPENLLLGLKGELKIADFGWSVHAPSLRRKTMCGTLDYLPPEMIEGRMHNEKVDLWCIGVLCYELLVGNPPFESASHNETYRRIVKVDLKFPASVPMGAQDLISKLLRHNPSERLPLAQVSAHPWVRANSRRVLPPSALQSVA
T1 sequence (Q9NQS7 803-918 partner limits assumed): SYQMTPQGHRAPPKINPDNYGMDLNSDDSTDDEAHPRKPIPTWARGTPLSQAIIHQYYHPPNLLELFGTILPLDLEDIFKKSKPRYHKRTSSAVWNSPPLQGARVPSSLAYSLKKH
Method: Compounds were tested by Mobility shift assay with ATP concentration at Km. The assay used human Aurora B kinase (Carna 05-102). Test compounds were prepared and diluted in DMSO in 3-fold serial dilutions to 50× of the final testing concentrations. The compounds were then further diluted to 5× by the kinase reaction buffer (50 mM HEPES pH 7.5, 0.0015% Brij-35). The enzymatic reaction for compound testing was performed in a white 384-well polypropylene plate (Corning 3573) with a total reaction volume of 25 μl containing 9 nM Aurora B, 3 μM peptide substrate FAM-P21 (GL Biochem 116370), and 15 μM ATP (Sigma A7699-1G). The assay started with loading Aurora B diluted in kinase reaction buffer to wells, followed by addition of equal volume of 5× compounds for 15-min incubation at the room temperature for pre-treatment. The enzymatic reaction was initiated by addition of mixture of the substrate and ATP prepared in kinase reaction buffer. After incubation at 28° C. for one hour, 25 μl of stopper buffer (a mixture of 100 mM HEPES pH 7.5 buffer, 0.015% Brij-35, 50 mM EDTA and 0.2% of coating reagent 3 (Cliper Lifesciences)). After 30 minutes of incubation at room temperature, the plate was read in a Caliper. Percent of control was calculated as the percentage of compound-treated vs 2% DMSO vehicle-treated. The dose-response curves were generated and the IC50 values were calculated by nonlinear sigmoid curve fitting using XLFit.

human RET kinase = target: T2, human RET kinase (Homo sapiens, UniProt P07949); experiment: RET Kinase Assay (mobility shift assay, ATP at Km); assay type: biochemical; details: 23 μM ATP (Km), read-out: RET Enzymatic Activity
T2 construct: purchased Carna 08-159
T2 sequence (P07949 29-1114): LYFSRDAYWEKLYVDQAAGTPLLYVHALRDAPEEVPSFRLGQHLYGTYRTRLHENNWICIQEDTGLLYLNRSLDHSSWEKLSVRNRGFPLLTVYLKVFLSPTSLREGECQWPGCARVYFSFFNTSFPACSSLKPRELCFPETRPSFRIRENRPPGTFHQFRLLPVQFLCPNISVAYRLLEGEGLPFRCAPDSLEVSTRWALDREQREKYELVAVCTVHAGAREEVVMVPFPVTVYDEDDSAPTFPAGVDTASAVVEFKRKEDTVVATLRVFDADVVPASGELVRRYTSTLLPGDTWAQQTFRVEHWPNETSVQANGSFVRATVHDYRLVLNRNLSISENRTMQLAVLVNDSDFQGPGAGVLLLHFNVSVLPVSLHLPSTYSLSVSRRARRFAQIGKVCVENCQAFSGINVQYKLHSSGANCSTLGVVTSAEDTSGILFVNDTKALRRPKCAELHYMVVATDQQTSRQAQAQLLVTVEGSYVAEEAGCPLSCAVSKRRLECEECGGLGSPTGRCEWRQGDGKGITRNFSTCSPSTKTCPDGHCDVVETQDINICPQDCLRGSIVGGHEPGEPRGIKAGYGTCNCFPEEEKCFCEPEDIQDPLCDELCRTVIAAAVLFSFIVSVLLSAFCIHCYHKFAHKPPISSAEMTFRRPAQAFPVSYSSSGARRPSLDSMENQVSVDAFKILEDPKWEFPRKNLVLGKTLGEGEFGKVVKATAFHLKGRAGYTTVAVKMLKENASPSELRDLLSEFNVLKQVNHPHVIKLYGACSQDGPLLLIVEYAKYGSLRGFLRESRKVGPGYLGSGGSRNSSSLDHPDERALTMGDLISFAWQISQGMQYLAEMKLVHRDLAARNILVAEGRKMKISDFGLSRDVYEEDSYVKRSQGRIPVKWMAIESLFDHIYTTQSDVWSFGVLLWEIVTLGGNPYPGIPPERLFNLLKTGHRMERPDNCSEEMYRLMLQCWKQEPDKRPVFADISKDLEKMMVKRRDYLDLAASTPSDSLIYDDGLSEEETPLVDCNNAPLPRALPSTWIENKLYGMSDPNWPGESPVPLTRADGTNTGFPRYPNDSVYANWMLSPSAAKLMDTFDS
Method: Compounds were tested by Mobility shift assay with ATP concentration at Km. The assay used human RET kinase (Carna 08-159). Test compounds were prepared and diluted in DMSO in 3-fold serial dilutions to 50× of the final testing concentrations. The compounds were then further diluted to 5× by the kinase reaction buffer (50 mM HEPES pH 7.5, 0.0015% Brij-35). The enzymatic reaction for compound testing was performed in a white 384-well polypropylene plate (Corning 3573) with a total reaction volume of 25 μl containing 7 nM RET, 3 μM peptide substrate FAM-P2 (GL Biochem 112394), and 23 μM ATP (Sigma A7699-1G). The assay started with loading RET diluted in kinase reaction buffer to wells, followed by addition of equal volume of 5× compounds for 15-min incubation at the room temperature for pre-treatment. The enzymatic reaction was initiated by addition of mixture of the substrate and ATP prepared in kinase reaction buffer. After incubation at 28° C. for one hour, 25 μl of stopper buffer (a mixture of 100 mM HEPES pH 7.5 buffer, 0.015% Brij-35, 50 mM EDTA and 0.2% of coating reagent 3 (Cliper Lifesciences)). After 30 minutes of incubation at room temperature, the plate was read in a Caliper. Percent of control was calculated as the percentage of compound-treated vs 2% DMSO vehicle-treated. The dose-response curves were generated and the IC50 values were calculated by nonlinear sigmoid curve fitting using XLFit.

BAF3-KIF5B-RET cells = target: T3, BAF3-KIF5B-RET cells (Homo sapiens, UniProt P07949); experiment: BAF3-KIF5B-RET Cell Proliferation Assay (CellTiter-Glo); assay type: cell-based; details: growth inhibition, 72 hours; Table 2; read-out: BA/F3-KIF5B-RET Cellular activity
T3 construct: fused on or other part: P33176 (Kinesin-1 heavy chain)
T3 sequence (P07949 whole entry, change not shown, the tested form may be a part): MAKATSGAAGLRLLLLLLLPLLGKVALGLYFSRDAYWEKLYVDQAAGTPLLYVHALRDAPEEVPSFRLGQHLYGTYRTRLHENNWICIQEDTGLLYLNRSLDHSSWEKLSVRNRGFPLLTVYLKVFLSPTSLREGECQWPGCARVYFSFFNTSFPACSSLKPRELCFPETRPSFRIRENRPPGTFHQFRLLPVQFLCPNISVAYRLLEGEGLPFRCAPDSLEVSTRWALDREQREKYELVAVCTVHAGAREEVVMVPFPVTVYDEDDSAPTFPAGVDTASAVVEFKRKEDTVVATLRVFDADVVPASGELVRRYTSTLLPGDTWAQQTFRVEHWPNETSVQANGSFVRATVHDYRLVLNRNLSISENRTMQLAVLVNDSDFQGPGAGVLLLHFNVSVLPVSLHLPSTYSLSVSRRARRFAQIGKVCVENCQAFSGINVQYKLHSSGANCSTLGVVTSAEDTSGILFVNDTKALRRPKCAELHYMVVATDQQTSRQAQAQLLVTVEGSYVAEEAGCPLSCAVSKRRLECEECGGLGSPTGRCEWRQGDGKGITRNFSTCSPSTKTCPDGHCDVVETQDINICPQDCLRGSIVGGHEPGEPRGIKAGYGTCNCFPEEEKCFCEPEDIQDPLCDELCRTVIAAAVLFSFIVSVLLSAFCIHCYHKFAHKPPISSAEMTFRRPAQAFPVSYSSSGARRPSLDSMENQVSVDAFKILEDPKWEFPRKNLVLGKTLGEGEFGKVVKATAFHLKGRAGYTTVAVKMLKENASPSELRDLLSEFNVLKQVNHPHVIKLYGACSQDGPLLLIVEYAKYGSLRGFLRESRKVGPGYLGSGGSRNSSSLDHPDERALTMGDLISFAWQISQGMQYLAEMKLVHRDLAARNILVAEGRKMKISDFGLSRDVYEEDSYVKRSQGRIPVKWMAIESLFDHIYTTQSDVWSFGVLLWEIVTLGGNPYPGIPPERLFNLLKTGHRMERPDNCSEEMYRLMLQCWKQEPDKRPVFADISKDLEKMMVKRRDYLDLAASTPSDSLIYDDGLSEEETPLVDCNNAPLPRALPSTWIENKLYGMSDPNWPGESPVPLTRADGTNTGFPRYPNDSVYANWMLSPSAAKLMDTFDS
Method: Compounds disclosed herein were tested for the inhibition of RET by a cancer cell proliferation assay commonly known as CellTiter-Glo assay. In this assay, a complete media was prepared by adding 10% fetal bovine serum to RPMI-1640 medium (Life technology) for RET-driven cancer cells (BAF3-FIF5B-RET, Ba/F3-KIF5B-RET-G810R, Ba/F3-TEL-RET-M918T or Ba/F3-KIF5B-RET-V804M). Individual RET-driven type of cells were added to each of 88 wells of a 96 well plate at a seeding density of 2,000 cells/well/95 μL. The cells were allowed to attach to the plate by incubating at 37° C. for 24 hours. The compound was dissolved in DMSO (SIGMA). A solution of test compound was prepared in complete media by serial dilution to obtain the following concentrations: 20 μM, 6.67 μM, 2.22 μM, 0.74 μM, 0.25 μM, 0.082 μM, 0.027 μM, 0.0091 μM and 0.0030 μM. The test compound solution (5 μL) was added to each of 80 cell-containing wells. The final concentrations of the compound were following: 1 μM, 0.33 μM, 0.11 μM, 0.037 μM, 0.012 μM, 0.0041 μM, 0.0014 μM, 0.00046 μM and 0.00015 μM. The final concentration of DMSO is 0.1%. To the 8 remaining cell-containing wells, only complete media (containing 0.1% DMSO) was added to form a control group in order to measure maximal proliferation. To the remaining 8 empty wells, complete media was added to for a vehicle control group in order to measure background. The plates were incubated at 37° C. for 72 hours. 50 μl of CellTiter-Glo® Reagent was added to each well. Mix contents for 2 minutes on an orbital shaker to induce cell lysis. Incubate at room temperature for 10 minutes to stabilize luminescent signal. Record luminescence on Paradigm. Cell viability (CV %) was calculated relative to vehicle (DMSO) treated control wells. The IC50 was calculated using GraphPad Prism.

Structure (SMILES) | IC50 (BAF3 cells) | IC50 (human Aurora B kinase) | IC50 (human RET kinase) | GI50 (BAF3-KIF5B-RET cells)
COc1ccc(CN2C3CC2CN(c2ccc(-c4cc(-c5cc(C(C)(C)O)n(C)n5)cn5ncc(C#N)c45)cn2)C3)cn1 [Example 4, 6-(5-(2-hydroxypropan-2-yl)-1-methyl-1H-pyrazol-3-yl)-4-(6-(6-((6-methoxypyridin-3-yl)methyl)-3,6-diazabicyclo[3.1.1]heptan-3-yl)pyridin-3-yl)pyrazolo[1,5-a]pyridine-3-carbonitrile] | 2.22 µM | 0.128 µM | 0.00067 µM | 0.0007 µM
CC(C)(O)c1ccc(-c2cc(-c3ccc(N4C[C@@H]5[C@@H](CNC(=O)c6ncccc6Cl)[C@@H]5C4)nc3)c3c(C#N)cnn3c2)nc1 [Example 5, 3-chloro-N-(((1R,5S,6s)-3-(5-(3-cyano-6-(5-(2-hydroxypropan-2-yl)pyridin-2-yl)pyrazolo[1,5-a]pyridin-4-yl)pyridin-2-yl)-3-azabicyclo[3.1.0]hexan-6-yl)methyl)picolinamide] | 0.516 µM | 0.0195 µM | 0.0008 µM | 0.003 µM
COc1ccc(CN2C3CC2CN(c2ccc(-c4cc(-c5ccc(C(C)(C)O)nc5)cn5ncc(C#N)c45)cn2)C3)cn1 [Example 8, 6-(6-(2-hydroxypropan-2-yl)pyridin-3-yl)-4-(6-(6-((6-methoxypyridin-3-yl)methyl)-3,6-diazabicyclo[3.1.1]heptan-3-yl)pyridin-3-yl)pyrazolo[1,5-a]pyridine-3-carbonitrile] | 1.05 µM | 0.045 µM | 0.00038 µM | 0.0014 µM
COc1ccc(CN2C3CC2CN(c2ccc(-c4cc(-c5ccc(C(C)(C)O)s5)cn5ncc(C#N)c45)cn2)C3)cn1 [Example 27, 6-(5-(2-hydroxypropan-2-yl)thiophen-2-yl)-4-(6-(6-((6-methoxypyridin-3-yl)methyl)-3,6-diazabicyclo[3.1.1]heptan-3-yl)pyridin-3-yl)pyrazolo[1,5-a]pyridine-3-carbonitrile] | 0.913 µM |  |  | 0.0007 µM
COc1ccc(CN2C3CC2CN(c2ccc(-c4cc(-c5cc(C(C)(C)NC(C)=O)n(C)n5)cn5ncc(C#N)c45)cn2)C3)cn1 [Example 28, N-(2-(3-(3-cyano-4-(6-(6-((6-methoxypyridin-3-yl)methyl)-3,6-diazabicyclo[3.1.1]heptan-3-yl)pyridin-3-yl)pyrazolo[1,5-a]pyridin-6-yl)-1-methyl-1H-pyrazol-5-yl)propan-2-yl)acetamide] | 2.33 µM |  |  | 0.004 µM
COc1ccc(CN2C3CC2CN(c2ccc(-c4cc(-c5ccc(OCC(C)(C)O)cn5)cn5ncc(C#N)c45)cn2)C3)cn1 [Example 32, 6-(5-(2-hydroxy-2-methylpropoxy)pyridin-2-yl)-4-(6-(6-((6-methoxypyridin-3-yl)methyl)-3,6-diazabicyclo[3.1.1]heptan-3-yl)pyridin-3-yl)pyrazolo[1,5-a]pyridine-3-carbonitrile] | 1.62 µM |  |  | 0.0014 µM
COc1ccc(CN2C3CC2CN(c2ccc(-c4cc(-c5ccc(OCC(C)(C)O)nc5)cn5ncc(C#N)c45)cn2)C3)cn1 [Example 33, 6-(6-(2-hydroxy-2-methylpropoxy)pyridin-3-yl)-4-(6-(6-((6-methoxypyridin-3-yl)methyl)-3,6-diazabicyclo[3.1.1]heptan-3-yl)pyridin-3-yl)pyrazolo[1,5-a]pyridine-3-carbonitrile] | 2.58 µM |  |  | 0.0051 µM
COc1ccc(CN2C3CC2CN(c2ccc(-c4cc(-c5ccn(CC(C)(C)O)n5)cn5ncc(C#N)c45)cn2)C3)cn1 [Example 34, 6-(1-(2-hydroxy-2-methylpropyl)-1H-pyrazol-3-yl)-4-(6-(6-((6-methoxypyridin-3-yl)methyl)-3,6-diazabicyclo[3.1.1]heptan-3-yl)pyridin-3-yl)pyrazolo[1,5-a]pyridine-3-carbonitrile] | 1.79 µM |  |  | 0.0007 µM
COc1ccc(CN2C3CC2CN(c2ccc(-c4cc(-c5cnn(CC(C)(C)O)c5)cn5ncc(C#N)c45)cn2)C3)cn1 [Example 35, 6-(1-(2-hydroxy-2-methylpropyl)-1H-pyrazol-4-yl)-4-(6-(6-((6-methoxypyridin-3-yl)methyl)-3,6-diazabicyclo[3.1.1]heptan-3-yl)pyridin-3-yl)pyrazolo[1,5-a]pyridine-3-carbonitrile] | 0.34 µM |  |  | 0.0005 µM
COc1ccc(CN2C3CC2CN(c2ccc(-c4cc(-c5ccc(S(N)(=O)=O)cn5)cn5ncc(C#N)c45)cn2)C3)cn1 [Example 36, 6-(3-cyano-4-(6-(6-((6-methoxypyridin-3-yl)methyl)-3,6-diazabicyclo[3.1.1]heptan-3-yl)pyridin-3-yl)pyrazolo[1,5-a]pyridin-6-yl)pyridine-3-sulfonamide] | 8.21 µM |  |  | 0.0166 µM
